In article PMC9883482, “TPX2 enhances the transcription factor activation of PXR and enhances the resistance of hepatocellular carcinoma cells to antitumor drugs” (Cell Death & Disease, 2023):
Where two headings read alike, the source gives them in different places.

Legend:
[1] = Sorafenib metabolism/clearance in LS180 cells; type: in vitro ADME; details: human, read-out: t1/2 values (converted)
[2] = Blood concentration assay of sorafenib, mice bearing MHCC97-H tumours; type: in vivo; details: nude, mouse, plasma, 2 mg/kg, 2 mg/kg oral
Method: Table notes: After knockdown of TPX2 in MHCC97-H cells, the cells were inoculated with nude mice to form subcutaneous tumour tissue (the volume of tumour tissue was approximately 1 g) and then given 2 mg/kg via oral administration. After knockdown TPX2 in MHCC97-H cells, the cells were inoculated into nude mice to form subcutaneous tumour tissue and then in situ liver tumour tissue was established. 2mg/kg via oral administration was given to nude mice. Thereafter, blood levels of sorafenib were measured.

advanced HCC patients = assay: Prognosis of advanced HCC patients who received sorafenib, by TPX2 mRNA expression; type: in vivo, human; details: advanced HCC patients on sorafenib
Method: The human-related experimental materials involved in this study consisted of mainly cDNA samples extracted from patient-derived HCC clinical specimens or the HCC cell lines. The cDNA samples were stored in a –80 °C refrigerator and stored in aliquots. […] Baseline information was detailed in our previous publications. The cell lines use in this study included various HCC cell lines (HepG2 [a HCC cell line], MHCC97-H [a highly aggressive HCC cell line], and MHCC97-L [a lowly aggressive HCC cell line]) and a PXR positive colorectal cancer line LS180. These cells were purchased from the National Infrastructure of Cell Resources of the Chinese Academy of Medical Sciences/China Union Medical College and descripted in our previous work.
All statistical analyses in the presence work were performed using the GraphPad 8.0 (GraphPad Software Corporation, Armonk, NY, USA). […] For the co-relationship analysis, the data were analyzed by linear regression to determine the overall trend of a group of data points. […] If the slope was positive, the horizontal coordinate was positively related to the vertical coordinate, and if the slope was negative, the horizontal coordinate was negatively related to the vertical coordinate. […] An ANOVA was used to examine whether any difference between groups could be detected. […]

HepG2 cells = assay: Subcutaneous tumor model; type: in vivo; details: nude mice; 2.0, 1.0 or 0.5 mg/kg oral
Excerpt: In the process of dissolving these pure drug powders, stirring, vortexing, and ultrasonic vibration were used to assist dissolution.
The HCC cells were transfected with plasmids and then injected into the subcutaneous position of nude mice (the HepG2 cells were transfected with TPX2 for TPX2 overexpression and the siRNA of TPX2 for TPX2 knockdown). After the cells in the bottom of the dish were digested with trypsin, the cells were gently mixed with sterilized PBS to prepare a cell suspension. The resulting cell suspension was directly injected subcutaneously into nude mice using a pre-sterilized disposable medical syringe with a capacity of 1 ml. After that step, animal status was observed every day, and the tumor tissue was collected after 4 to 6 weeks of growth to detect the tumor volume (using a Vernier caliper to measure the long and short axes of the tumor tissue after which the tumor volume was calculated according to the formula: short axis × short axis × long axis/2) and weight (accurately weighed with a 1/10000th precision balance). Finally, the tumor tissue was ground with liquid nitrogen, and qPCR was then used to measure the mRNA expression level of the corresponding genes. The intrahepatic tumor model and the in vivo imaging of small-animals-related experiments were performed according to our previous publications. […]

[3] = system: HCC cells (MHCC97-H, MHCC97-L, or HepG2); assay: Sorafenib retention in cultured HCC cells, LC-MS/MS; type: in vitro ADME, human; details: 48-h time point after 1 μmol/L incubation
Method: After incubation with sorafenib was complete, the medium containing sorafenib was discarded and replaced with normal DMEM + FBS for continuous cultures. Cell samples were collected at each time point starting at 0 (when the cell samples were collected immediately after the incubation step/baseline) followed by 4, 8, 12, 24, and 48 h.
For sorafenib-treated samples in cellular experiments, sorafenib processing and extraction of the samples were performed. HCC cell samples were re-suspended in PBS after which the organic solvent acetonitrile at a ratio of 1:1 was added. The samples were then crushed and extracted for about 30 min with vortex shaking. After that step, the samples were centrifuged at 12,000 rpm at 4 °C for about 15 to 20 min. At this time, the samples were separated into cell debris, organic, and water phases. The collected organic phase contained the sample of sorafenib in acetonitrile.
(§1) S transition pair was detected using LC–MS/MS: (1) the parent ion was 465 Da and (2) the product ion was 252 Da.

[4] = system: HCC subcutaneous tumor tissues; assay: Sorafenib retention in HCC subcutaneous tumor tissues, LC-MS/MS; type: in vivo, nude mice; details: 72-h time point after intratumoral injection
Method: For HCC subcutaneous tumor tissue, HCC cells were first cultured for transfection after which the cells were inoculated subcutaneously into nude mice to form tumor tissue. […] The HCC tumor tissues were collected at each time point described previously with the addition of 72 and 96 h.
During the extraction of sorafenib samples from HCC tissue samples, the tissue samples were shredded to form tissue micro-blocks and then ground with liquid nitrogen. The samples ground with liquid nitrogen were mixed with PBS and then mixed with the organic solvent acetonitrile at a ratio of 1:1. The samples were then crushed and extracted for about 30 min using vortex shaking. After that, the samples were centrifuged at 12,000 rpm and at 4 °C for about 15 to 20 min. At this time, the sample was separated into cell debris and organic and water phases.
as §1

[5] = oral, Subcutaneous MHCC97-H Control tumour
[6] = oral, Subcutaneous MHCC97-H siTPX2 tumour
[7] = po, intrahepatic MHCC97-H Control tumour
[8] = po, intrahepatic MHCC97-H siTPX2 tumour

## CNC(=O)c1cc(Oc2ccc(NC(=O)Nc3ccc(Cl)c(C(F)(F)F)c3)cc2)ccn1 [sorafenib]
[1]; TPX2 knockdown
  half-life at 1 μmol/L: 32.7 h
[1]; TPX2 overexpression
  half-life at 1 μmol/L: 12 h
[1]; control of TPX2 knockdown experiment
  half-life at 1 μmol/L: 21.8 h
[1]; control of TPX2 overexpression experiment
  half-life at 1 μmol/L: 21.3 h
[2]; [5]
  concentration at 2 h: 23.3 ± 16.6 ng/mL
  concentration at 8 h: 152 ± 25.4 ng/mL
  concentration at 20 h: 123 ± 23.6 ng/mL
  concentration at 40 h: 63 ± 14.5 ng/mL
[2]; [6]
  concentration at 2 h: 33.2 ± 19.4 ng/mL
  concentration at 8 h: 170 ± 32.3 ng/mL
  concentration at 20 h: 142 ± 21.4 ng/mL
  concentration at 40 h: 77.5 ± 23.5 ng/mL
[2]; [7]
  concentration at 2 h: 22.5 ± 11.8 ng/mL
  concentration at 8 h: 146 ± 28.7 ng/mL
  concentration at 20 h: 120 ± 32 ng/mL
  concentration at 40 h: 46.8 ± 31.9 ng/mL
[2]; [8]
  concentration at 2 h: 24.3 ± 14.2 ng/mL
  concentration at 8 h: 152 ± 22.1 ng/mL
  concentration at 20 h: 127 ± 31.2 ng/mL
  concentration at 40 h: 57.8 ± 27.6 ng/mL
Advanced HCC patients; TPX2 mRNA High (n = 26)
  TTP median value: 9.0 months
Advanced HCC patients; TPX2 mRNA Low (n = 26)
  OS median value: 16.0 months
HepG2 cells
  subcutaneous growth of HepG2 cells (tumor volumes/weights): inhibited the subcutaneous growth of HepG2 cells in a dose-dependent manner
[3]
  metabolism and elimination in cultured HCC cells: almost completely metabolized and eliminated
[4]
  metabolism and elimination in HCC tissues: almost completely metabolized and eliminated
